pIC50, pKi: −log10 of the molar value. Each block holds one compound with its values, some of them ahead of it. Where a SMILES comes first, the peptide text is derived from it. Bridges are numbered along the chain shown (N, C = ends).
Legend:
[1] = biological target: T1, Peptidyl-prolyl cis-trans isomerase NIMA-interacting 1 (Homo sapiens, UniProt Q13526); assay: Inhibition of Pin1 (unknown origin)
[2] = biological target: T1, Peptidyl-prolyl cis-trans isomerase NIMA-interacting 1; assay: Competitive inhibition of Pin1 (unknown origin) by Lineweaver-Burk plot analysis
[3] = biological target: T1, Peptidyl-prolyl cis-trans isomerase NIMA-interacting 1; assay: Inhibition of Pin1 in human MCF7 cells assessed as inhibition of etoposide-induced p53 transcription at 30 uM by luciferase reporter gene assay relative to control; format: cell-based
[4] = biological target: Peptidyl-prolyl cis-trans isomerase NIMA-interacting 4 (Homo sapiens, UniProt Q9Y237); assay: Inhibition of Par14 (unknown origin)
[5] = biological target: T1, Peptidyl-prolyl cis-trans isomerase NIMA-interacting 1; assay: Inhibition of Pin1 (unknown origin) using Suc-Ala-Glu-Pro-Phe-MCA as substrate after 120 secs by fluorescence microtiter plate reader analysis
[6] = biological target: T1, Peptidyl-prolyl cis-trans isomerase NIMA-interacting 1; assay: Inhibition of human Pin1
[7] = biological target: T1, Peptidyl-prolyl cis-trans isomerase NIMA-interacting 1; assay: Binding affinity to GST-tagged Pin1 (unknown origin) by SPR spectroscopic analysis
MEF = assay: Growth inhibition of MEF expressing Pin1; format: functional; conditions: Mus musculus
[8] = Growth inhibition of Pin1-deficient MEF; format: cell-based; conditions: mouse, Pin1-deficient MEF cells
[9] = biological target: T1, Peptidyl-prolyl cis-trans isomerase NIMA-interacting 1; assay: Inhibition of full length Pin1 (unknown origin) using WFY(pS)PR-pNA as substrate by spectrophotometric analysis
[10] = biological target: T1, Peptidyl-prolyl cis-trans isomerase NIMA-interacting 1; assay: Reversible inhibition of human Pin1
[11] = Growth inhibition of human […] cells; format: functional
[12] = biological target: T1, Peptidyl-prolyl cis-trans isomerase NIMA-interacting 1; assay: Inhibition of Pin1 (unknown origin) using Suc-Ala-Glu-cis-Pro-Phe-pNA as substrate
[13] = biological target: T1, Peptidyl-prolyl cis-trans isomerase NIMA-interacting 1; assay: Inhibition of Pin1 in human MCF7 cells assessed as inhibition of etoposide-induced p53 transcription at 10 uM by luciferase reporter gene assay relative to control; format: cell-based
[14] = biological target: T1, Peptidyl-prolyl cis-trans isomerase NIMA-interacting 1; assay: Inhibition of GST-tagged Pin1 (unknown origin) using Suc-AEPF-pNA and WFYpSPR-pNA as substrate after 5 mins

T1 sequence (Q13526 whole entry): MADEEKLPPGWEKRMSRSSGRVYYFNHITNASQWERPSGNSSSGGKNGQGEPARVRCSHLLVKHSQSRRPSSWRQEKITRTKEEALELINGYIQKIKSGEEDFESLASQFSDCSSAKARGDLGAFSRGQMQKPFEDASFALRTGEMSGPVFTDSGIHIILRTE
Chain of Peptidyl-prolyl cis-trans isomerase NIMA-interacting 4 (Q9Y237 whole entry): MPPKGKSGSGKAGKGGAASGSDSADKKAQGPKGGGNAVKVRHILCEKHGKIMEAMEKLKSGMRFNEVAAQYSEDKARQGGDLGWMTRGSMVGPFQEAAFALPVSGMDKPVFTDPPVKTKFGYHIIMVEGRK

pIC50 [1]: 5.40
pKi [2]: 7.30
SMILES: S=C(SC(=S)N1CCCCC1)N1CCCCC1

inhibition [3]: 25%
SMILES: COc1ccc(F)cc1C(=O)[C@@]1(C)CCc2ccccc21

pIC50 [4]: 5.82
pIC50 [5]: 5.82
SMILES: CCOC(=O)CN1C(=O)c2ccc3c4c(ccc(c24)C1=O)C(=O)N(CC(=O)OCC)C3=O

pIC50 [6]: 6.05
SMILES: O=C(O)C[C@@H](C/C=C/c1cccc(F)c1)NC(=O)c1ccc2ccccc2c1

pIC50 [7]: 5.21
SMILES: O=c1ccsn1-c1ccc(F)c(Cl)c1

pIC50 [6]: 5.40
SMILES: O=C(N[C@H](Cc1cccc(F)c1)c1nn[nH]n1)c1ccc2ccccc2c1

SMILES: O=C(O[C@@H]1Cc2c(O)cc(O)cc2O[C@@H]1c1cc(O)c(O)c(O)c1)c1cc(O)c(O)c(O)c1 [EPIGALOCATECHIN GALLATE]
GI50 (MEF): 7000 nM
GI50 [8]: 14000 nM
pIC50 [9]: 4.70

pIC50 [10]: 6.70
SMILES: O=C(c1cc(-c2c(O)c([N+](=O)[O-])cc(F)c2[N+](=O)[O-])cc([N+](=O)[O-])c1O)C1CCc2ccccc21 (racemic)

pIC50 [12]: 5.82
SMILES: CC(=O)N[C@@H](Cc1ccccc1)C(=O)N[C@@H](Cc1ccccc1)C(=O)N[C@H](/C=C1/CCC[C@H]1C(=O)N[C@@H](CCCNC(=N)N)C(N)=O)COP(=O)(O)O
GI50 [11]: 8000 nM

pIC50 [1]: 7.60
SMILES: Cc1oc(-c2ccc(CN)cc2)cc1C(=O)N[C@H](Cc1nc2ccccc2[nH]1)C(=O)O

pIC50 [1]: 5.22
SMILES: O=C(N[C@@H](COP(=O)(O)O)CN1CCC[C@H]1C(=O)NCCc1c[nH]c2ccccc12)OCC1c2ccccc2-c2ccccc21

pIC50 [1]: 5.25
inhibition [13]: > 75%
SMILES: COc1ccc(F)cc1C(=O)[C@]1(C)CCc2ccccc21

pIC50 [6]: 6.22
SMILES: CCCCCc1ccc(CCC(=O)N[C@H](Cc2ccc(O)cc2)C(=O)N[C@@H](Cc2ccc(O)cc2)C(=O)N[C@@H](Cc2ccc3ccccc3c2)C(=O)O)cc1

pIC50 [14]: 6.30
SMILES: CC[C@H](C)[C@@H]1NC(=O)[C@H](CCC(=O)O)NC(=O)[C@H](C(C)C)NC(=O)[C@H](CCC(=O)O)NC(=O)[C@@H]2CCCN2C(=O)[C@H](Cc2ccc(O)cc2)NC(=O)[C@H](CCCN=C(N)N)NC(=O)[C@@H](N)CSSC[C@@H](C(=O)O)NC1=O [CYCLIC CRYPEVEIC] (H-CRYPEVEIC-OH; disulfide 1-9)

pIC50 [10]: 6.00
SMILES: CC(=O)N[C@@H](C)C(=O)N[C@@H](C)C(=O)N[C@H](COP(=O)(O)O)C(=O)N1CCC[C@H]1C(=O)N[C@@H](CCCNC(=N)N)C(=O)Nc1ccc([N+](=O)[O-])cc1
